Data on two compounds can be found in US12685773B2 (priority 2020, dated 2026).

One data set has as its system relapsed/refractory HL. As to conditions: cited from earlier work.
The mark [1] stands for this setting: 3 patients did not have data at 3 months.
[2] abbreviates: AE of special interest, classical HL patients.
The mark [3] stands for this setting: Grade 3 or higher AE, classical HL patients.
Setting [4] is: not resolved by Day 28, classical HL patients.
[5] abbreviates: 9 patients evaluated at 6 weeks after infusion.

As for `Cn1c(CCCC(=O)O)nc2cc(N(CCCl)CCCl)ccc21` [Benda], under setting [1], the “Prolonged Grade 3/4 Anemia (at month 3): n” value worked out at 0, the “Prolonged Grade 3/4 Neutropenia (at month 3): n” value amounted to 0 and the “Prolonged Grade 3/4 Thrombocytopenia (at month 3): n” value is recorded as 0. Under setting [2], the “Cytokine Release Syndrome (all Grade 1): %” value was “(13) %” and the “Cytokine Release Syndrome (all Grade 1): n” value turned out to be 1. Besides, under setting [3], the “Anemia: n” value worked out at 0, the “Dyspnea: n” value is 0, the “Headache: n” value amounted to 0 and the “Hypoalbuminemia: n” value is given as 0. In addition, under setting [3], the “Hyponatremia: n” value was found to be 0, the “Leukopenia: %” value is given as “(38) %”, the “Leukopenia: n” value came to 3 and the “Lung Infection: n” value is 0. In addition, under setting [3], the “Lymphopenia: %” value was “(100) %”, the “Lymphopenia: n” value amounted to 8, the “Neutropenia: %” value is recorded as “(25) %” and the “Neutropenia: n” value is 2. For the same compound, under setting [3], the “Pharyngitis: n” value stood at 0, the “Rash: n” value was found to be 0, the “Thrombocytopenia: %” value is reported as “(13) %” and the “Thrombocytopenia: n” value is 1. Under “classical HL patients”, the “Grade 3/4 Anemia at day 28: n” value came out at 0 and the “Rash (Any Grade): %” value was “(25) %”. For the same compound, the “Rash (Any Grade): n” value (classical HL patients, maculopapular skin rash) is 2. Also, under setting [4], the “Grade 3/4 Neutropenia at day 28: n” value is given as 0 and the “Grade 3/4 Thrombocytopenia at day 28: n” value came out at 0.
Consider cyclophosphamide and fludarabine, for which, in the data set with relapsed/refractory HL (setting [5]), the CR is 66.6%, the ORR is on record as 66.6% and the PD is reported as 33.3%. Further, in the data set on relapsed/refractory HL (out of 9 patients evaluated at 6 weeks after infusion), the “disease progression: patients” value is given as 3. For the same compound, in the data set on relapsed/refractory HL (out of 9 patients evaluated at 6 weeks after infusion, cyclophosphamide 500 mg/m^2 and fludarabine 30 mg/m^2 daily for 3 days), the “CR: patients” value is given as 6.
